Test results from US20100254948A1, “PROCESS FOR THE PREPARATION OF GAMMA-AMINO BUTYRIC ACID (GABA) BY THE USE OF LACTIC ACID BACTERIA (LAB) ON AGRO-AND FOOD-INDUSTRY SURPLUS” (Giuliani S.p.A, priority 2007, published 2010).
Entries after “also recorded” stand apart in the source; their conditions may differ.

What was measured:
Assay type in all cases: cell-based, human
[1] = system: GCLC (glutamate-cysteinyl ligase); test: Real time PCR of glutamate-cysteinyl ligase (GCLC) in FT-skin model; conditions: 1% Biomass or GABA 1 mm dose, from 8 h
Source text: (§1) 2) The ‘full thickness skin model’ (FT) (Phenion GmbH & Co., Frankfurt am Main, Germany) is a multi-layer human skin model consisting of keratinocytes and fibroblasts stemming from the same donor. After a culture period of five weeks, the ‘full thickness’ was fully developed and comprised epidermis, basal membrane and derma. The model was characterized with respect to the expression of fundamental markers of differentiation at the epidermis level (cytokeratin 10, philagrin, transglutaminase and involucrin), at the derma-epidermis junctions (laminin and collagen IV) and at dermal level (elastin fibronectin). The diameter of the model FT is of 1.3 cm.
(§2) In this study the following genes were employed:
(§3) The technique employs Taqman probes for detecting the fluorescent signal and it is very sensitive, consisting in the amplification and quantification of a specific sequence of nucleic acids. The detection of the PCR product occurs in real time. The quantification of DNA, cDNA or RNA is carried out by determining the cycle in which he PCR product can be detected for the first time, thus not at the moment when the reaction has become saturated. The quantification of the product occurs through the detection of fluorescence measured in each cycle; the strength of the signal is directly proportional to the amount of the amplified product. […]
(§4) Each biological sample is evaluated in triple tests. […]

[2] = system: GSS (glutatione synthetase); test: Real time PCR of glutatione synthetase (GSS) in FT-skin model; conditions: 24 hours, expression values very low and meaningless
Source text: as §1, §2, §3, §4

[3] = system: hyaluronate synthetase (HAS1); test: Real time PCR of hyaluronate synthetase (HAS1) in FT-skin model
Source text: as §1, §2, §3, §4

[4] = system: philagrin (FLG); test: Real time PCR of philagrin (FLG) in FT-skin model
Source text: as §1, §2, §3, §4

[5] = system: involucrin (IVL); test: Real time PCR of involucrin (IVL) in FT-skin model; conditions: 8, 24, 48 and 72 hours, repeated application for 3 days
Source text: as §1, §2, §3, §4

## NCCCC(=O)O [GABA, gamma-aminobutyric acid]
[1]
  GCLC gene expression (RT-PCR): No gene modulation
[2]
  GSS gene modulation (RT-PCR): just as a tendency
[3]; 24 hours, 1% Biomass or GABA 1 mm dose, high standard deviation
  hyaluronate synthetase (HAS) expression with respect to control sample: increased
[3]; 48 hours, GABA 1 mm dose
  hyaluronate synthetase (HAS) expression: increased
[4]; 24 hours
  philagrin gene over-expression: evident
[4]; 72 hours (repeated application for 3 days)
  philagrin gene over-expression: significative increase
[5]
  involucrin gene modulation: no significative modulation; also recorded: unmodulated
